According to patent US12655116B2, “Substituted isophthalic acid diamides” (Bayer Aktiengesellschaft, priority 2020, dated 2026):

What was measured:
LOLRI = test: Post-emergence herbicidal action against LOLRI; assay type: in vivo, Lolium rigidum; conditions: Lolium rigidum, 504 h, dosage 20 g/ha
Method in brief: (§1)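 Weeds in sandy loam soil received a post-emergence spray at the one-leaf stage. Compounds were applied as WP or EC in water, 600 to 800 l/ha, with 0.2% wetting agent. Activity in % was judged visually after roughly 3 weeks against untreated plants.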

VIOTR [1] = test: Pre-emergence herbicidal action against VIOTR; assay type: in vivo, Viola tricolor; conditions: Viola tricolor, 504 h; for pest or weed control at 20 g/ha: dosage 20 g/ha; for pest or weed control at 80 g/ha: dosage 80 g/ha
Method in brief: (§2)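 Visual rating at 3 weeks vs untreated pots; 0–100% scale, 100% = plants died. Treatment: aqueous WP/EC spray onto covering soil, 600–800 l/ha, 0.2% wetter, seeds in sandy loam.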

SETVI [2] = test: Pre-emergence herbicidal action against SETVI; assay type: in vivo, Setaria viridis; conditions: Setaria viridis, 504 h; for pest or weed control at 80 g/ha: dosage 80 g/ha
Method in brief: as §2

ECHCG [3] = test: Pre-emergence herbicidal action against ECHCG; assay type: in vivo, Echinochloa crus-galli; conditions: Echinochloa crus-galli, 504 h
Method in brief: as §2

AVEFA [4] = test: Post-emergence herbicidal action against AVEFA; assay type: in vivo, Avena fatua; conditions: Avena fatua, 504 h, visual assessment about 3 weeks after treatment, 100% = plants have died, 0% = like control plants
Method in brief: as §1

VIOTR [5] = test: Post-emergence herbicidal action against VIOTR; assay type: in vivo, Viola tricolor; conditions: Viola tricolor, 504 h
Method in brief: as §1

VERPE [6] = test: Post-emergence herbicidal action against VERPE; assay type: in vivo, Veronica persica; conditions: Veronica persica, 504 h, 20 g/ha
Method in brief: as §1

HORMU [7] = test: Pre-emergence herbicidal action against HORMU; assay type: in vivo, Hordeum murinum; conditions: Hordeum murinum, 504 h; 80 g/ha, pre-emergence
Method in brief: as §2

STEME [8] = test: Post-emergence herbicidal action against STEME; assay type: in vivo, Stellaria media; conditions: Stellaria media, 504 h; for pest or weed control at 5 g/ha: dosage 5 g/ha
Method in brief: as §1

SETVI [9] = test: Post-emergence herbicidal action against SETVI; assay type: in vivo, Setaria viridis; conditions: Setaria viridis, 504 h; for pest or weed control at 5 g/ha: dosage 5 g/ha; for pest or weed control at 20 g/ha: dosage 20 g/ha
Method in brief: as §1

ALOMY [10] = test: Pre-emergence herbicidal action against ALOMY; assay type: in vivo, Alopecurus myosuroides; conditions: Alopecurus myosuroides, 504 h; 80 g/ha, pre-emergence, scored visually after 3 weeks vs untreated controls (100% = plants have died, 0% = like control plants)
Method in brief: as §2

MATIN [11] = test: Pre-emergence herbicidal action against MATIN; assay type: in vivo, Matricaria inodora; conditions: Tripleurospermum inodorum, 504 h; for pest or weed control at 20 g/ha: dosage 20 g/ha; for pest or weed control at 80 g/ha: dosage 80 g/ha
Method in brief: as §2

VERPE [12] = test: Pre-emergence herbicidal action against VERPE; assay type: in vivo, Veronica persica; conditions: Veronica persica, 504 h; for pest or weed control at 80 g/ha: dosage 80 g/ha
Method in brief: as §2

AMARE [13] = test: Post-emergence herbicidal action against AMARE; assay type: in vivo, Amaranthus retroflexus; conditions: Amaranthus retroflexus, 504 h, 20 g/ha, visual assessment about 3 weeks after treatment, 100% = plants have died, 0% = like control plants
Method in brief: as §1

MATIN [14] = test: Post-emergence herbicidal action against MATIN; assay type: in vivo, Matricaria inodora; conditions: Tripleurospermum inodorum, 504 h; for pest or weed control at 5 g/ha: dosage 5 g/ha; for pest or weed control at 20 g/ha: dosage 20 g/ha
Method in brief: as §1

STEME [15] = test: Pre-emergence herbicidal action against STEME; assay type: in vivo, Stellaria media; conditions: Stellaria media, 504 h; for pest or weed control at 20 g/ha: dosage 20 g/ha; for pest or weed control at 80 g/ha: dosage 80 g/ha
Method in brief: as §2

HORMU [16] = test: Post-emergence herbicidal action against HORMU; assay type: in vivo, Hordeum murinum; conditions: Hordeum murinum, 504 h; for pest or weed control at 20 g/ha: dosage 20 g/ha
Method in brief: as §1

ALOMY [17] = test: Post-emergence herbicidal action against ALOMY; assay type: in vivo, Alopecurus myosuroides; conditions: Alopecurus myosuroides, 504 h, visual assessment about 3 weeks after treatment vs untreated controls; for pest or weed control at 5 g/ha: dosage 5 g/ha; for pest or weed control at 20 g/ha: dosage 20 g/ha
Method in brief: as §1

AMARE [18] = test: Pre-emergence herbicidal action against AMARE; assay type: in vivo, Amaranthus retroflexus; conditions: Amaranthus retroflexus, 504 h, scored visually after 3 weeks vs untreated controls, 100% = plants have died, 0% = like control plants
Method in brief: as §2

POLCO = test: Pre-emergence herbicidal action against POLCO; assay type: in vivo, Polygonum convolvulus; conditions: Fallopia convolvulus, 504 h; for pest or weed control at 80 g/ha: dosage 80 g/ha
Method in brief: as §2

ECHCG [19] = test: Post-emergence herbicidal action against ECHCG; assay type: in vivo, Echinochloa crus-galli; conditions: Echinochloa crus-galli, 504 h; for pest or weed control at 5 g/ha: dosage 5 g/ha; for pest or weed control at 20 g/ha: dosage 20 g/ha
Method in brief: as §1

AVEFA [20] = test: Pre-emergence herbicidal action against AVEFA; assay type: in vivo, Avena fatua; conditions: Avena fatua, 504 h, pre-emergence
Method in brief: as §2

Row | Compound | pest or weed control at 20 g/ha (LOLRI) | pest or weed control at 20 g/ha (VIOTR [1]) | pest or weed control at 80 g/ha (VIOTR [1]) | pest or weed control at 80 g/ha (SETVI [2]) | pest or weed control at 20 g/ha (ECHCG [3]) | pest or weed control at 80 g/ha (ECHCG [3]) | pest or weed control at 20 g/ha (AVEFA [4]) | pest or weed control at 5 g/ha (VIOTR [5]) | pest or weed control at 20 g/ha (VIOTR [5]) | pest or weed control at 20 g/ha (VERPE [6]) | pest or weed control at 80 g/ha (HORMU [7]) | pest or weed control at 20 g/ha (STEME [8]) | pest or weed control at 5 g/ha (STEME [8]) | pest or weed control at 5 g/ha (SETVI [9]) | pest or weed control at 20 g/ha (SETVI [9]) | pest or weed control at 80 g/ha (ALOMY [10]) | pest or weed control at 20 g/ha (MATIN [11]) | pest or weed control at 80 g/ha (MATIN [11]) | pest or weed control at 80 g/ha (VERPE [12]) | pest or weed control at 20 g/ha (AMARE [13]) | further results
1 | CCc1c(C(=O)Nc2nnnn2C)ccc(C(F)(F)F)c1C(=O)NC1CC1 [Example 1-273] | 80% | 100% | 100% | 100% | 90% | 100% | 90% | 100% | 100% | 90% | 80% | 100% | 90% | 80% | 100% | 90% | 100% | 100% | 90% | 100% | pest or weed control at 20 g/ha (SETVI [2]; dosage 20 g/ha): 100%; pest or weed control at 5 g/ha (MATIN [14]): 100%; pest or weed control at 20 g/ha (MATIN [14]): 100%; pest or weed control at 20 g/ha (STEME [15]): 100%; pest or weed control at 80 g/ha (STEME [15]): 100%; pest or weed control at 5 g/ha (HORMU [16]; dosage 5 g/ha): 80%; pest or weed control at 20 g/ha (HORMU [16]): 90%; pest or weed control at 5 g/ha (ALOMY [17]): 80%; pest or weed control at 20 g/ha (ALOMY [17]): 100%; pest or weed control at 20 g/ha (AMARE [18]): 100%; pest or weed control at 80 g/ha (AMARE [18]): 100%; pest or weed control at 80 g/ha (POLCO): 90%; pest or weed control at 5 g/ha (ECHCG [19]): 80%; pest or weed control at 20 g/ha (ECHCG [19]): 90%; pest or weed control at 80 g/ha (AVEFA [20]): 100%
2 | CCn1nnnc1NC(=O)c1ccc(C(F)(F)F)c(C(=O)NC2CC2)c1C [Example 2-27] | 80% | 100% | 100% | 100% | 90% | 100% | 100% | 100% | 100% | 80% | 90% | 100% | 100% | 80% | 100% | 100% | 100% | 100% | 100% | 100% | pest or weed control at 5 g/ha (AVEFA [4]; 5 g/ha): 90%; pest or weed control at 20 g/ha (VERPE [12]; dosage 20 g/ha): 80%; pest or weed control at 5 g/ha (MATIN [14]): 100%; pest or weed control at 20 g/ha (MATIN [14]): 100%; pest or weed control at 20 g/ha (STEME [15]): 100%; pest or weed control at 80 g/ha (STEME [15]): 100%; pest or weed control at 20 g/ha (HORMU [16]): 90%; pest or weed control at 5 g/ha (ALOMY [17]): 80%; pest or weed control at 20 g/ha (ALOMY [17]): 90%; pest or weed control at 20 g/ha (AMARE [18]): 100%; pest or weed control at 80 g/ha (AMARE [18]): 100%; pest or weed control at 20 g/ha (POLCO; dosage 20 g/ha): 80%; pest or weed control at 80 g/ha (POLCO): 100%; pest or weed control at 5 g/ha (ECHCG [19]): 80%; pest or weed control at 20 g/ha (ECHCG [19]): 100%; pest or weed control at 80 g/ha (AVEFA [20]): 100%; pest or weed control at 20 g/ha (AVEFA [20]; 20 g/ha, scored visually after 3 weeks, 100% = plants have died, 0% = like control plants): 80%
